Source: patent US6136781A, “LH-RH receptor antagonists” (Takeda Chemical Industries, Ltd., priority 1995, dated 2000)
Like-named read-outs stand apart in the source and are kept apart here. Square brackets hold non-standard residues; d marks the D form. Peptide text beside a SMILES is read from it. * marks the point of attachment. Naphthalene1sulfonyl = O=S(=O)(c1cccc2ccccc12)*; Gly(2-thienyl) = N[C@H](C(=O)O)c1cccs1; Hexanoyl(6-Ph) = O=C(CCCCCc1ccccc1)*; Mtr = COc1cc(C)c(S(=O)(=O)*)c(C)c1C; Butanoyl(4-Ph) = O=C(CCCc1ccccc1)*; 1Naphthoyl = O=C(c1cccc2ccccc12)*; NHPhenethyl = c1ccc(CCN*)cc1; Phg = N[C@H](C(=O)O)c1ccccc1; Tos = Cc1ccc(S(=O)(=O)*)cc1; Bz = O=C(c1ccccc1)*

Columns and labels:
Human LH-RH Receptor = molecular target: T1, Human LH-RH Receptor (Homo sapiens, UniProt P30968); assay: Inhibition of bonding of 125I-leuprorelin to human LH-RH receptor (receptor assay); assay type: binding; details: human LH-RH receptor-expressing CHO cell membrane fraction, 25° C. for 60 minutes, Hill plotting
T1 construct: expressed in transfected cells; host or cells: CHO cells (Chinese hamster ovary), membrane fraction
T1 sequence (P30968 1-328): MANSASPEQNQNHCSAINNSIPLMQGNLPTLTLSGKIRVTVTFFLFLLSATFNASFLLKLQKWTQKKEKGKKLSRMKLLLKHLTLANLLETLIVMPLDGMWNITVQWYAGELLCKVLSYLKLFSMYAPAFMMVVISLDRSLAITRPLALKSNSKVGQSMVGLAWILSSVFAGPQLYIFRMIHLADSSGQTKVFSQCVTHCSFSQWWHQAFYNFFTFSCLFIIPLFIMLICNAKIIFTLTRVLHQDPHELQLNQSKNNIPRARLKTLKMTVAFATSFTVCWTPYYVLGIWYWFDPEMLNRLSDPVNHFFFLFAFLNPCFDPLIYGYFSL
Procedure: Human LH-RH receptor-expressing CHO cells (10^9 cells) were floated in a phosphate buffer saline containing 5 mM EDTA (PBS-EDTA) and subjected to centrifugation at 100×g for 5 minutes. 10 ml of a cell homogenate buffer (10 mM NaHCO3, 5 mM EDTA, pH 7.5) was added to the resulting cell pellets, and the resulting mixture was then homogenized in a polytron homogenizer. This was thereafter centrifuged at 400×g for 15 minutes, and the resulting supernatant was collected in an ultra-centrifuger and again centrifuged at 100,000×g for 1 hour to obtain a precipitate of the cell membrane fraction. This precipitate was suspended in 2 ml of an assay buffer and centrifuged at 100,000×g for 1 hour. The cell membrane fraction thus collected as a precipitate was again suspended in 20 ml of an assay buffer, put into plural vials and stored at -80° C. These were individually thawed before use.
Determination of Percentage of Inhibition of Bonding of ^125 I-Leuprorelin to Human LH-RH Receptor
The human LH-RH receptor-expressing CHO cell membrane fraction as prepared in Reference Example 2 was diluted with an assay buffer to have a concentration of 200 μg/ml and put into plural tubes at 188 μl/tube. Where the human LH-RH receptor-expressing CHO cell membrane fraction was used, 2 μl of a solution of the test compound (2 mM) as dissolved in 60%-DMSO and 10 μl of ^125 I-leuprorelin (38 nM) were added to the dilution of the fraction. In order to measure the maximum amount of the ^125 I-leuprorelin as bonded to the receptor, a reaction system comprising 2 μl of 60%-DMSO and 10 μl of ^125 -leuprorelin (38 nM) was prepared. In order to measure the amount of ^125 I-leuprorelinas non-specifically bonded to the receptor, a reaction system comprising 2 μl of leuprorelin (100 μM) as dissolved in 60%-DMSO and 10 μl of ^125 I-leuprorelin (38 nM) was prepared.
Each system of the present invention comprising the human LH-RH receptor-expressing CHO cell membrane fraction was reacted at 25° C. for 60 minutes. After the reaction, the reaction mixture was filtered under suction through a polyethyleneimine-treated Wattman glass filter (GF-F). After the filtration, the radioactivity of ^125 I-leuprorelin in the residue remained on the filter paper was measured using a g-counter.
From the data measured, a value of [(TB-SB)/(TB-NSB)]×100 (where SB is the radioactivity of the test system to which the test compound had been added; TB is the radioactivity of the maximum bonding system; and NSB is the radioactivity of the non-specific bonding system) was calculated, which indicates the bonding-inhibition percentage (%) of the compound tested. […] The results obtained are shown in [Table 1].

[1] = amide bond, 15-membered ring
[2] = amide bond; 15-membered ring; PyBOP/DIEA; DMF; 25.0 °C; 2 steps
[3] = DIEA/AcOH, DMF, resin, with chain assembly

Molecule | IC50 (Human LH-RH Receptor) | also measured
CC(C)C[C@@H]1NC(=O)[C@@H](Cc2c[nH]c3ccccc23)NC(=O)[C@H](Cc2ccc(O)cc2)NC(=O)[C@@H](CCCCNS(=O)(=O)c2cccc3ccccc23)NC(=O)[C@H](CCCNC(=N)N)NC1=O [Example 1, cyclo(-Arg-D-Lys(SO2 Nap(1))-Tyr-D-Trp-Leu-)] (cyclo(LR[dK](Naphthalene1sulfonyl)Y[dW])) | 0.9 µM | –
CC(C)C[C@@H]1NC(=O)[C@@H](Cc2c[nH]c3ccccc23)NC(=O)[C@H](Cc2ccc(O)cc2)NC(=O)[C@@H](CCCCNC(=O)CCCc2ccccc2)NC(=O)[C@H](CCCNC(=N)N)NC1=O [Example 19, cyclo(-Arg-D-Lys(COCH2 CH2 CH2 Ph)-Tyr-D-Trp-Leu-)] (cyclo(LR[dK](Butanoyl(4-Ph))Y[dW])) | 1 µM | –
CC(C)C[C@@H]1NC(=O)[C@@H](Cc2c[nH]c3ccccc23)NC(=O)[C@H](Cc2ccc(O)cc2)NC(=O)[C@@H](CCCCNC(=O)CCCCCc2ccccc2)NC(=O)[C@H](CCCNC(=N)N)NC1=O [Example 20, cyclo(-Arg-D-Lys (COCH2 CH2 CH2 CH2 CH2 Ph)-Tyr-D-Trp-Leu-)] (cyclo(LR[dK](Hexanoyl(6-Ph))Y[dW])) | 0.1 µM | –
CC(C)C[C@@H]1NC(=O)[C@@H](Cc2c[nH]c3ccccc23)NC(=O)[C@H](CCCCNC(=O)c2ccccc2)NC(=O)[C@@H](CCC(=O)NCCc2ccccc2)NC(=O)[C@H](CCCNC(=N)N)NC1=O [Example 21, cyclo(-Arg-D-Glu(NHCH2 CH2 Ph)-Lys(COPh)-D-Trp-Leu-)] (cyclo(K(Bz)[dW]LR[dE](NHPhenethyl))) | 0.4 µM | –
CC(C)C[C@@H]1NC(=O)[C@@H](Cc2c[nH]c3ccccc23)NC(=O)[C@H](CCCNC(=N)N)NC(=O)[C@@H](Cc2ccc(O)cc2)NC(=O)[C@@H](CCCCNS(=O)(=O)c2cccc3ccccc23)NC1=O [Example 23, cyclo(-D-Tyr-Arg-D-Trp-Leu-D-Lys(SO2 Nap(1))-)] (cyclo(L[dK](Naphthalene1sulfonyl)[dY]R[dW])) | 0.9 µM | –
CC(C)C[C@@H]1NC(=O)[C@@H](Cc2c[nH]c3ccccc23)NC(=O)[C@H](CCCCNC(=O)c2cccc3ccccc23)NC(=O)[C@@H](CCC(=O)NCCc2ccccc2)NC(=O)[C@H](CCCNC(=N)N)NC1=O [Example 31, cyclo(-Arg-D-Glu(NHCH2 CH2 Ph)-Lys(CONap(1))-D-Trp-Leu-)] (cyclo(K(1Naphthoyl)[dW]LR[dE](NHPhenethyl))) | 0.2 µM | –
COc1cc(C)c(S(=O)(=O)NC(=N)NCCC[C@H]2NC(=O)[C@H](Cc3ccccc3)NC(=O)[C@H](Cc3c[nH]c4ccccc34)NC(=O)[C@@H](C)NC(=O)[C@H](Cc3ccccc3)NC2=O)c(C)c1C [Example 35, cyclo(-Phe-D-Arg-(Mtr)-Phe-D-Ala-Trp-)] (cyclo(F[dA]WF[dR](Mtr))) | 0.4 µM | –
C[C@H]1NC(=O)[C@H](Cc2ccccc2)NC(=O)[C@@H](CCCNC(=N)N)NC(=O)[C@H](Cc2ccccc2)NC(=O)[C@H](Cc2c[nH]c3ccccc23)NC1=O [Example 36, cyclo(-Phe-D-Arg-Phe-D-Ala-Trp-)] (cyclo(F[dA]WF[dR])) | 0.9 µM | –
Cc1ccc(S(=O)(=O)NC(=N)NCCC[C@H]2NC(=O)[C@H](Cc3ccccc3)NC(=O)[C@H](Cc3c[nH]c4ccccc34)NC(=O)[C@@H](C)NC(=O)[C@H](Cc3ccccc3)NC2=O)cc1 [Example 37, cyclo(-Phe-D-Arg(Tos)-Phe-D-Ala-Trp-)] (cyclo(F[dA]WF[dR](Tos))) | 0.3 µM | –
C[C@H]1NC(=O)[C@H](Cc2ccccc2)NC(=O)[C@H](CCCNC(=N)N)NC(=O)[C@H](Cc2ccccc2)NC(=O)[C@H](Cc2c[nH]c3ccccc23)NC1=O [Example 43, cyclo(-Phe-Arg-Phe-D-Ala-Trp-)] (cyclo(FRF[dA]W)) | 1 µM | –
Cc1ccc(S(=O)(=O)NC(=N)NCCC[C@H]2NC(=O)[C@H](c3ccccc3)NC(=O)[C@H](Cc3c[nH]c4ccccc34)NC(=O)[C@@H](C)NC(=O)[C@H](Cc3ccccc3)NC2=O)cc1 [Example 48, cyclo(-Phg-D-Arg(Tos)-Phe-D-Ala-Trp-)] (cyclo(F[dA]W[Phg][dR](Tos))) | 0.07 µM | –
Cc1ccc(S(=O)(=O)NC(=N)NCCC[C@H]2NC(=O)[C@H](C)NC(=O)[C@H](Cc3c[nH]c4ccccc34)NC(=O)[C@@H](C)NC(=O)[C@H](Cc3ccccc3)NC2=O)cc1 [Example 51, cyclo(-Ala-D-Arg(Tos)-Phe-D-Ala-Trp-)] (cyclo(A[dR](Tos)F[dA]W)) | 0.2 µM | –
Cc1ccc(S(=O)(=O)NC(=N)NCCC[C@H]2NC(=O)[C@H](c3ccccc3)NC(=O)[C@H](Cc3ccccc3)NC(=O)[C@@H](C)NC(=O)[C@H](Cc3ccccc3)NC2=O)cc1 [Example 53, cyclo(-Phg-D-Arg(Tos)-Phe-D-Ala-Phe-)] (cyclo(F[Phg][dR](Tos)F[dA])) | 0.1 µM | –
Cc1ccc(S(=O)(=O)NC(=N)NCCC[C@H]2NC(=O)[C@H](c3cccs3)NC(=O)[C@H](Cc3c[nH]c4ccccc34)NC(=O)[C@@H](C)NC(=O)[C@H](Cc3ccccc3)NC2=O)cc1 [Example 54, cyclo(-Thg(2)-D-Arg(Tos)-Phe-D-Ala-Trp-)] (cyclo(F[dA]W[Gly(2-thienyl)][dR](Tos))) | 0.3 µM | –
C[C@H]1NC(=O)[C@H](Cc2ccccc2)NC(=O)[C@@H](CCCNC(=N)N)NC(=O)[C@H](c2ccccc2)NC(=O)[C@H](Cc2c[nH]c3ccccc23)NC1=O [Example 55, cyclo(-Phg-D-Arg-Phe-D-Ala-Trp-)] (cyclo(F[dA]W[Phg][dR])) | 0.2 µM | –
CC(C)C[C@@H]1NC(=O)[C@@H](Cc2c[nH]c3ccccc23)NC(=O)[C@H](Cc2ccc(O)cc2)NC(=O)[C@@H]2CCCN2C(=O)[C@H](Cc2c[nH]c3ccccc23)NC(=O)[C@H](CCCNC(=N)N)NC1=O [Reference Example 1, cyclo(-Tyr-D-Trp-Leu-Arg-Trp-Pro-), reference compound] (cyclo(LRWPY[dW])) | 10 µM | –
Cyclo(-Arg(Tos)-D-Glu(NHCH2 CH2 Ph)-Lys(Cl-Z)-D-Trp-Leu-) | – | ring closure, crude yield ([1]; ONB active ester, 4 steps): 72.3%
cyclo(-Phe-D-Arg(Tos)-Phe-D-Phe-Trp-) | – | ring closure, isolated yield [2]: 70.6%
cyclo(-Phe-D-Arg(Tos)-Phe-D-Trp-Trp-) | – | ring closure, isolated yield [2]: 83%
cyclo(-pClPhe-Arg(Tos)-Nal(2)-D-Ala-Trp-) | – | ring closure, crude yield [1, 3]: 59.1%
cyclo(-pClPhe-D-Arg(Tos)-Nal(2)-D-Ala-Trp-) | – | ring closure, crude yield [1, 3]: 92.8%
